Key:
human orexin receptor 1 = human orexin receptor 1 (Homo sapiens (Human), UniProt O43613); test: Orexin antagonist activity, intracellular calcium FLIPR assay (orexin receptor 1); type: cell-based; settings: RBL-2H3 cells stably expressing human orexin receptor 1; Ca2+ dye FLIPR; compound 15 minutes before orexin-A at approximately 80% maximal response; read-out: Human Orexin1R IC50
How it was run: (§1)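 RBL-2H3 cells stably expressing human OX1 or OX2 were loaded with Calcium 5 dye for 1 h at 37 °C. Compounds were added 15 min before orexin-A at a concentration giving ~80% maximal response, and Ca2+ fluorescence was read by FLIPR.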

human orexin receptor 2 = human orexin receptor 2 (Homo sapiens (Human), UniProt O43614); test: Orexin antagonist activity, intracellular calcium FLIPR assay (orexin receptor 2); type: cell-based; settings: RBL-2H3 cells stably expressing human orexin receptor 2; Ca2+ dye FLIPR; compound 15 minutes before orexin-A at approximately 80% maximal response; read-out: Human Orexin2R IC50
Chain of human orexin receptor 2 (O43614 whole entry): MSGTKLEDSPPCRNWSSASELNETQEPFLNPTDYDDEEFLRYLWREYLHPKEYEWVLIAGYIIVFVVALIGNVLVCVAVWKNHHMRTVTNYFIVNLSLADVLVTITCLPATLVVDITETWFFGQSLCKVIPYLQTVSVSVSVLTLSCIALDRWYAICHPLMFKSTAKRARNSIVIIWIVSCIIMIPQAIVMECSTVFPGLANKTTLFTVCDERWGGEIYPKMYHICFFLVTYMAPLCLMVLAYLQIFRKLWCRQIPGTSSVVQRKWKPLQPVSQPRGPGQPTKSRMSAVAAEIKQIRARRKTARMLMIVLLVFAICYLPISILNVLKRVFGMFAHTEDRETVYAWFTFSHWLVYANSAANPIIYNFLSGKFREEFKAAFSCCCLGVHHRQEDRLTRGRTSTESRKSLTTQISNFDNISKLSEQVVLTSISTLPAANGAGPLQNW
How it was run: as §1

Chain of human orexin receptor 1 (O43613 whole entry): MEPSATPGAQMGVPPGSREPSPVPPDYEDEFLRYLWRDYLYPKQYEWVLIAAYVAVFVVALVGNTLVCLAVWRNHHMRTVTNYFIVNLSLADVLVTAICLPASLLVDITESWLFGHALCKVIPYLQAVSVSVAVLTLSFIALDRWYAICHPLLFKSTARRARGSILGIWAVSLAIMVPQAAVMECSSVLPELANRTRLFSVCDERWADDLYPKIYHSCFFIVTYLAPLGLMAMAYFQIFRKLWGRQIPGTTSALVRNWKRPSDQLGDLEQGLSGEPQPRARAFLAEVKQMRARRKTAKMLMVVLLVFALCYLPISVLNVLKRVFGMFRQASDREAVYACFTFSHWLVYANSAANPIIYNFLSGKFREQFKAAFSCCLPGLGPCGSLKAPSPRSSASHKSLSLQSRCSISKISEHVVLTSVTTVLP

SMILES | IC50 (human orexin receptor 1) [nM] | IC50 (human orexin receptor 2) [nM]
Cc1ccc(-n2nccn2)c(C(=O)NC2CCCC2Cc2cnc3ccccc3n2)c1 (stereo not shown) [Example 63, 5-Methyl-N-[2-(quinoxalin-2-ylmethyl)cyclopentyl]-2-(2H-1,2,3-triazol-2-yl)benzamide] | 48 | 4200
O=C(N[C@H]1CCC[C@@H]1Nc1nc2ccc(F)cc2s1)c1c(F)cccc1Cl [Example 70, 2-Chloro-6-fluoro-N-[(1S,2S)-2-[(6-fluoro-1,3-benzothiazol-2-yl)amino]cyclopentyl]benzamide] | 38 | > 10000
O=C(N[C@H]1CCC[C@@H]1Nc1nc2ccc(F)cc2s1)c1c(Cl)cccc1-n1nccn1 [Example 71, 2-Chloro-N-[(1S,2S)-2-[(6-fluoro-1,3-benzothiazol-2-yl)amino]cyclopentyl]-6-(2H-1,2,3-triazol-2-yl)benzamide] | 24 | 4200
O=C(N[C@H]1CCC[C@@H]1Nc1nc2ccc(F)cc2s1)c1ccccc1-n1ccnn1 [Example 73, N-[(1S,2S)-2-[(6-Fluoro-1,3-benzothiazol-2-yl)amino]cyclopentyl]-2-(1H-1,2,3-triazol-1-yl)benzamide] | 35 | > 10000
CN(C(=O)c1c(F)cccc1F)[C@H]1CCC[C@@H]1Nc1nc2ccc(F)cc2s1 [Example 76, 2,6-Difluoro-N-[(1S,2S)-2-[(6-fluoro-1,3-benzothiazol-2-yl)amino]cyclopentyl]-N-methylbenzamide] | 23 | 2500
COc1ccccc1C(=O)N(C)[C@H]1CCC[C@@H]1Nc1nc2ccc(F)cc2s1 [Example 77, N-[(1S,2S)-2-[(6-Fluoro-1,3-benzothiazol-2-yl)amino]cyclopentyl]-2-methoxy-N-methylbenzamide] | 25 | 1600
CN(C(=O)c1ccccc1Cl)[C@H]1CCC[C@@H]1Nc1nc2ccc(F)cc2s1 [Example 78, 2-Chloro-N-[(1S,2S)-2-[(6-fluoro-1,3-benzothiazol-2-yl)amino]cyclopentyl]-N-methylbenzamide] | 20 | 2400
CN(C(=O)c1cc(F)ccc1-n1nccn1)[C@H]1CCC[C@@H]1Nc1nc2ccc(F)cc2s1 [Example 81, 5-Fluoro-N-[(1S,2S)-2-[(6-fluoro-1,3-benzothiazol-2-yl)amino]cyclopentyl]-N-methyl-2-(2H-1,2,3-triazol-2-yl)benzamide] | 1 | 840
Cc1noc(-c2ccccc2C(=O)N(C)[C@H]2CCC[C@@H]2Nc2nc3ccc(F)cc3s2)n1 [Example 83, N-[(1S,2S)-2-[(6-Fluoro-1,3-benzothiazol-2-yl)amino]cyclopentyl]-N-methyl-2-(3-methyl-1,2,4-oxadiazol-5-yl)benzamide] | 1 | 1200
COc1cccc(OC)c1C(=O)N[C@H]1CCC[C@@H]1Nc1nc2cc(F)ccc2s1 [Example 84, N-[(1S,2S)-2-[(5-Fluoro-1,3-benzothiazol-2-yl)amino]cyclopentyl]-2,6-dimethoxybenzamide] | 45 | > 10000
COc1cccc(OC)c1C(=O)N[C@H]1CCC[C@@H]1Nc1nc2cc(F)ccc2o1 [Example 85, N-[(1S,2S)-2-[(5-Fluoro-1,3-benzoxazol-2-yl)amino]cyclopentyl]-2,6-dimethoxybenzamide] | 23 | > 10000
O=C(N[C@H]1CCC[C@@H]1Nc1nc2ccccc2o1)c1ccccc1-n1nccn1 [Example 86, N-[(1S,2S)-2-[(1,3-Benzoxazol-2-yl)amino]cyclopentyl]-2-(2H-1,2,3-triazol-2-yl)benzamide] | 150 | > 10000
O=C(N[C@H]1CCC[C@@H]1Nc1nc2ccccc2s1)c1ccccc1-n1nccn1 [Example 90, N-[(1S,2S)-2-[(1,3-Benzothiazol-2-yl)amino]cyclopentyl]-2-(2H-1,2,3-triazol-2-yl)benzamide] | 16 | > 10000
O=C(N[C@H]1CCC[C@@H]1Nc1nc2c(F)cc(F)cc2s1)c1ccccc1-n1nccn1 [Example 93, N-[(1S,2S)-2-[(4,6-Difluoro-1,3-benzothiazol-2-yl)amino]cyclopentyl]-2-(2H-1,2,3-triazol-2-yl)benzamide] | 14 | 6200
O=C(N[C@H]1CCC[C@@H]1Nc1nc2c(F)cccc2s1)c1ccccc1-n1nccn1 [Example 94, N-[(1S,2S)-2-[(4-Fluoro-1,3-benzothiazol-2-yl)amino]cyclopentyl]-2-(2H-1,2,3-triazol-2-yl)benzamide] | 30 | > 10000
O=C(N[C@H]1CCC[C@@H]1Nc1nc2cccnc2s1)c1ccccc1-n1nccn1 [Example 95, N-[(1S,2S)-2-({[1,3]Thiazolo[5,4-b]pyridin-2-yl}amino)cyclopentyl]-2-(2H-1,2,3-triazol-2-yl)benzamide] | 41 | > 10000
CC1(Nc2nc3ccc(Cl)cc3s2)CCCC1NC(=O)c1ccccc1-n1nccn1 (stereo not shown) [Example 108, N-{2-[(6-Chloro-1,3-benzothiazol-2-yl)amino]-2-methylcyclopentyl}-2-(2H-1,2,3-triazol-2-yl)benzamide] | 13 | 186

Further compounds by falling IC50 (human orexin receptor 1), results first:

IC50 (human orexin receptor 1) [nM] | IC50 (human orexin receptor 2) [nM] | SMILES
480 | > 10000 | O=C(N[C@H]1CCC[C@@H]1Nc1nc2c(Cl)cncc2s1)c1ccccc1-n1nccn1 [Example 96, N-[(1S,2S)-2-({7-Chloro-[1,3]thiazolo[5,4-c]pyridin-2-yl}amino)cyclopentyl]-2-(2H-1,2,3-triazol-2-yl)benzamide]
320 | > 10000 | Cc1cccc(C)c1C(=O)N[C@H]1CCC[C@@H]1Nc1nc2ccc(F)cc2s1 [Example 68, N-[(1S,2S)-2-[(6-Fluoro-1,3-benzothiazol-2-yl)amino]cyclopentyl]-2,6-dimethylbenzamide]
310 | 2100 | COc1cccc(OC)c1C(=O)NC1CCCC1Cc1ccc2ccccc2n1 (stereo not shown) [Example 98, 2,6-Dimethoxy-N-[2-(quinolin-2-ylmethyl)cyclopentyl]benzamide]
110 | 6500 | COc1ccc(C)cc1C(=O)N[C@H]1CCC[C@@H]1Nc1nc2ccc(F)cc2s1 [Example 67, N-[(1S,2S)-2-[(6-Fluoro-1,3-benzothiazol-2-yl)amino]cyclopentyl]-2-methoxy-5-methylbenzamide]
50 | > 10000 | COc1cccc(OC)c1C(=O)N[C@H]1CCC[C@@H]1Nc1nc2ccc(F)cc2o1 [Example 66, N-[(1S,2S)-2-[(6-Fluoro-1,3-benzoxazol-2-yl)amino]cyclopentyl]-2,6-dimethoxybenzamide]
38 | 2100 | O=C(N[C@H]1CCC[C@@H]1Nc1nc2ccc(F)cc2s1)c1cc(Cl)ccc1-n1cccn1 [Example 74, 5-Chloro-N-[(1S,2S)-2-[(6-fluoro-1,3-benzothiazol-2-yl)amino]cyclopentyl]-2-(1H-pyrazol-1-yl)benzamide]
27 | 5400 | O=C(N[C@H]1CCC[C@@H]1Nc1nc2cc(Cl)ccc2s1)c1ccccc1-n1nccn1 [Example 89, N-[(1S,2S)-2-[(5-Chloro-1,3-benzothiazol-2-yl)amino]cyclopentyl]-2-(2H-1,2,3-triazol-2-yl)benzamide]
21 | > 10000 | O=C(N[C@H]1CCC[C@@H]1Nc1nc2ccc(F)cc2o1)c1ccccc1-n1nccn1 [Example 87, N-[(1S,2S)-2-[(6-Fluoro-1,3-benzoxazol-2-yl)amino]cyclopentyl]-2-(2H-1,2,3-triazol-2-yl)benzamide]
21 | 4200 | O=C(N[C@H]1CCC[C@@H]1Nc1nc2cc(F)ccc2o1)c1ccccc1-n1nccn1 [Example 88, N-[(1S,2S)-2-[(5-Fluoro-1,3-benzoxazol-2-yl)amino]cyclopentyl]-2-(2H-1,2,3-triazol-2-yl)benzamide]
15 | 3200 | O=C(N[C@H]1CCC[C@@H]1Nc1nc2ccc(F)cc2s1)c1c(F)cccc1-n1nccn1 [Example 69, 2-Fluoro-N-[(1S,2S)-2-[(6-fluoro-1,3-benzothiazol-2-yl)amino]cyclopentyl]-6-(2H-1,2,3-triazol-2-yl)benzamide]
14 | > 10000 | Cc1nnc(-c2ccccc2C(=O)N[C@H]2CCC[C@@H]2Nc2nc3ccc(F)cc3s2)o1 [Example 72, N-[(1S,2S)-2-[(6-Fluoro-1,3-benzothiazol-2-yl)amino]cyclopentyl]-2-(5-methyl-1,3,4-oxadiazol-2-yl)benzamide]
14 | 8600 | O=C(N[C@H]1CCC[C@@H]1Nc1nc2cc(F)ccc2s1)c1ccccc1-n1nccn1 [Example 92, N-[(1S,2S)-2-[(5-Fluoro-1,3-benzothiazol-2-yl)amino]cyclopentyl]-2-(2H-1,2,3-triazol-2-yl)benzamide]
7 | 60 | CC1(Nc2nc3ccc(F)cc3s2)CCCC1NC(=O)c1ccccc1-n1nccn1 (stereo not shown) [Example 107, N-{2-[(6-Fluoro-1,3-benzothiazol-2-yl)amino]-2-methylcyclopentyl}-2-(2H-1,2,3-triazol-2-yl)benzamide]
1 | 1100 | CN(C(=O)c1ccccc1-n1cccn1)[C@H]1CCC[C@@H]1Nc1nc2ccc(F)cc2s1 [Example 79, N-[(1S,2S)-2-[(6-Fluoro-1,3-benzothiazol-2-yl)amino]cyclopentyl]-N-methyl-2-(1H-pyrazol-1-yl)benzamide]
1 | 650 | CN(C(=O)c1ccccc1-n1nccn1)[C@H]1CCC[C@@H]1Nc1nc2ccc(F)cc2s1 [Example 80, N-[(1S,2S)-2-[(6-Fluoro-1,3-benzothiazol-2-yl)amino]cyclopentyl]-N-methyl-2-(2H-1,2,3-triazol-2-yl)benzamide]

From US9493432B2, “Cyclopentylbenzamide derivatives and their use for the treatment of psychotic and cognitive disorders” (Takeda Pharmaceutical Company Limited, priority 2013, dated 2016)
